Experimental data: patent publication US20230143612A1 (Arbutus Biopharma Corporation, priority 2020, published 2023)

These compounds were tested against PD-L1 His protein / PD-1 Fc protein (Homo sapiens, UniProt Q9NZQ7) (assay: HTRF Assay (PD-1/PD-L1 interaction)). Conditions: PD-L1 His 6 nM, PD-1 Fc 6 nM.
Format: binding
Procedure, shortened: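 Compounds tested from 20 μM down to 0.001 μM (3-fold) against 6 nM PD-L1 His and 6 nM PD-1 Fc, 15 min room temperature incubation. Detection after 1 h at room temperature with Tb cryptate anti-6HIS and XL665 anti-human IgG reagents (mixture at 0.35 nM and 6.7 nM), HTRF signal.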

Chain of PD-L1 His protein / PD-1 Fc protein (Q9NZQ7 19-238 limits assumed): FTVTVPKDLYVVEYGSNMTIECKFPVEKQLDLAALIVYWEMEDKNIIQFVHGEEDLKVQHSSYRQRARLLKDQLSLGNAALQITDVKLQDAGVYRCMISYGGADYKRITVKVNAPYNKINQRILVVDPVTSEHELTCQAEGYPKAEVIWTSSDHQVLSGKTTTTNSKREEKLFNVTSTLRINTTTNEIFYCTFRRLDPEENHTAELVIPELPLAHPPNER

For `COc1nc(-c2cccc(-c3cccc(-c4ccn5c(=O)c(CNCC(=O)O)cnc5c4)c3Cl)c2Cl)ccc1CNC[C@@H]1CCC(=O)N1` [Example 189, (S)-((8-(2,2′-Dichloro-3′-(6-methoxy-5-((((5-oxopyrrolidin-2-yl)methyl)amino)methyl)pyridin-2-yl)-[1,1′-biphenyl]-3-yl)-4-oxo-4H-pyrido[1,2-a]pyrimidin-3-yl)methyl)glycine], which IC50 is on record?
The IC50 was 0.1 nM.

`CNC(=O)C[C@H](O)CNCc1cnc2cc(-c3cccc(-c4cccc(-c5cc(F)c(CNC[C@@H]6CCC(=O)N6)c(OC)n5)c4Cl)c3Cl)ccn2c1=O` [Example 293, (3S)-4-[[8-[2-Chloro-3-[2-chloro-3-[4-fluoro-6-methoxy-5-[[[(2S)-5-oxopyrrolidin-2-yl]methylamino]methyl]-2-pyridyl]phenyl]phenyl]-4-oxo-pyrido[1,2-a]pyrimidin-3-yl]methylamino]-3-hydroxy-N-methyl-butanamide] was tested. Which IC50 did it give?
Its IC50 is 0.1 nM.

`COc1nc(-c2cccc(-c3cccc(-c4ccn5c(=O)c(CNCC67CCC(C6)C(=O)N7)cnc5c4)c3Cl)c2Cl)ccc1CNC[C@@H]1CCC(=O)N1` (stereo partly drawn) [Example 252, 8-[2-Chloro-3-[2-chloro-3-[6-methoxy-5-[[[(2S)-5-oxopyrrolidin-2-yl]methylamino]methyl]-2-pyridyl]phenyl]phenyl]-3-[[(3-oxo-2-azabicyclo[2.2.1]heptan-1-yl)methylamino]methyl]pyrido[1,2-a]pyrimidin-4-one] was tested. Which IC50 did it give?
Its IC50 is 4.7 nM.

For `COc1nc(-c2cccc(-c3cccc(-c4cc5c(=O)n(C)c(CN6CC(C)(O)C6)nn5c4)c3Cl)c2Cl)cc(Cl)c1CNC[C@@H]1CCC(=O)N1` [Example 492, (S)-6-(2,2′-Dichloro-3′-(4-chloro-6-methoxy-5-((((5-oxopyrrolidin-2-yl)methyl)amino)methyl)pyridin-2-yl)-[1,1′-biphenyl]-3-yl)-2-((3-hydroxy-3-methylazetidin-1-yl)methyl)-3-methylpyrrolo[2,1-f][1,2,4]triazin-4(3H)-one], which IC50 is on record?
Its IC50 is 0.6 nM.

Which IC50 does the source give for `CN1CCC(NC[C@@H]2CCC(=O)N2)c2ccc(-c3cccc(-c4cccc(-c5ccc6c(n5)N(C)CCC6NC[C@@H]5CCC(=O)N5)c4Cl)c3Cl)nc21` (stereo partly drawn) [Example 42, (5S,5'S)-5,5′-((((2,2′-Dichloro-[1,1′-biphenyl]-3,3′-diyl)bis(1-methyl-1,2,3,4-tetrahydro-1,8-naphthyridine-7,4-diyl))bis(azanediyl))bis(methylene))bis(pyrrolidin-2-one)] here?
The IC50 was 2.3 nM.

How did the IC50 turn out when `COc1nc(-c2cccc(-c3cccc(-c4ccn5c(=O)c(CNC[C@@H]6CCC(=O)N6)cnc5c4)c3Cl)c2Cl)cnc1CNC[C@@H]1CCC(=O)N1` [Example 47, 8-(2,2′-Dichloro-3′-(6-methoxy-5-(((((S)-5-oxopyrrolidin-2-yl)methyl)amino)methyl)pyrazin-2-yl)-[1,1′-biphenyl]-3-yl)-3-(((((S)-5-oxopyrrolidin-2-yl)methyl)amino)methyl)-4H-pyrido[1,2-a]pyrimidin-4-one] was run?
Its IC50 is 1.4 nM.

With `COc1nc(-c2cccc(-c3cccc(-c4ccc5c(n4)OCCNC5)c3Cl)c2Cl)ccc1CNC[C@@H]1CCC(=O)N1` [Example 218, (S)-5-((((6-(2,2′-Dichloro-3′-(2,3,4,5-tetrahydropyrido[3,2-f][1,4]oxazepin-8-yl)-[1,1′-biphenyl]-3-yl)-2-methoxypyridin-3-yl)methyl)amino)methyl)887yrrolidine-2-one] as the compound, how does the IC50 read?
Its IC50 is 0.6 nM.

How did the IC50 turn out when `COc1nc(-c2cccc(-c3cccc(-c4ccn5c(=O)c(CNC6CCS(=O)(=O)CC6)cnc5c4)c3Cl)c2Cl)ccc1CNC[C@@H]1CCC(=O)N1` [Example 224, (S)-8-(2,2′-dichloro-3′-(6-methoxy-5-((((5-oxopyrrolidin-2-yl)-methyl)amino)-methyl)-pyridin-2-yl)-[1,1′-biphenyl]-3-yl)-3-(((1,1-dioxidotetrahydro-2H-thiopyran-4-yl)-amino)methyl)-4H-pyrido[1,2-a]-pyrimidin-4-one] was run?
The IC50 was 2.8 nM.

How did the IC50 turn out when `COc1nc(-c2cccc(-c3cccc(-c4ccc5nc(CNC[C@H](C)O)cn5n4)c3Cl)c2Cl)ccc1CNC[C@H](C)O` [Example 340, (2S)-1-[[6-[2-Chloro-3-[2-chloro-3-[2-[[[(2S)-2-hydroxypropyl]amino]methyl]imidazo[1,2-b]pyridazin-6-yl]phenyl]phenyl]-2-methoxy-3-pyridyl]methylamino]propan-2-ol] was run?
The IC50 was 3.5 nM.

Which IC50 does the source give for `COc1c(CNC[C@@H]2CCC(=O)N2)ccc2nc(-c3cccc(-c4cccc(-c5ccn6c(=O)c(CNC[C@@H]7CCC(=O)N7)cnc6c5)c4Cl)c3Cl)ccc12` [Example 176, 8-(2,2′-Dichloro-3′-(5-methoxy-6-(((((S)-5-oxopyrrolidin-2-yl)methyl)amino)methyl)quinolin-2-yl)-[1,1′-biphenyl]-3-yl)-3-(((((S)-5-oxopyrrolidin-2-yl)methyl)amino)methyl)-4H-pyrido[1,2-a]pyrimidin-4-one] here?
The IC50 was 250 nM.

How did the IC50 turn out when `COc1nc(-c2cccc(-c3cccc(-c4ccc5nc(CNC[C@@H]6CCC(=O)N6)ncc5c4)c3Cl)c2Cl)ccc1CNC[C@@H]1CCC(=O)N1` [Example 422, (S)-5-((((6-(2,2′-Dichloro-3′-(2-(((((S)-5-oxopyrrolidin-2-yl)methyl)amino)methyl)quinazolin-6-yl)-[1,1′-biphenyl]-3-yl)-2-methoxypyridin-3-yl)methyl)amino)methyl)pyrrolidin-2-one] was run?
The IC50 was 4.1 nM.

How did the IC50 turn out when `COc1nc(-c2cccc(-c3cccc(-c4ccc5cc(CNC[C@@H]6CCC(=O)N6)ccc5n4)c3Cl)c2Cl)ccc1CNC[C@@H]1CCC(=O)N1` [Example 369, (5S)-5-[[[2-[2-Chloro-3-[2-chloro-3-[6-methoxy-5-[[[(2S)-5-oxopyrrolidin-2-yl]methylamino]methyl]-2-pyridyl]phenyl]phenyl]-6-quinolyl]methylamino]methyl]pyrrolidin-2-one] was run?
Its IC50 is 560 nM.

`COc1nc(-c2cccc(-c3cccc(-c4ccn5c(=O)c(CNC[C@@H]6CCC(=O)N6)cnc5c4)c3Cl)c2Cl)ccc1CNC[C@@H]1CCC(=O)N1` [Example 33, 8-(2,2′-Dichloro-3′-(6-methoxy-5-(((((S)-5-oxopyrrolidin-2-yl)methyl)amino)methyl)pyridin-2-yl)-[1,1′-biphenyl]-3-yl)-3-(((((S)-5-oxopyrrolidin-2-yl)methyl)amino)methyl)-4H-pyrido[1,2-a]pyrimidin-4-one] was tested. Which IC50 did it give?
The IC50 was 2.7 nM.

Which IC50 does the source give for `COC(=O)C1CN(Cc2c(C)nc3cc(-c4cccc(-c5cccc(-c6ccc(CNC[C@@H]7CCC(=O)N7)c(OC)n6)c5Cl)c4Cl)ccn3c2=O)C1` [Example 296, (S)-Methyl 1-((8-(2,2′-dichloro-3′-(6-methoxy-5-((((5-oxopyrrolidin-2-yl)methyl)amino)methyl)pyridin-2-yl)-[1,1′-biphenyl]-3-yl)-2-methyl-4-oxo-4H-pyrido[1,2-a]pyrimidin-3-yl)methyl)azetidine-3-carboxylate] here?
The IC50 was 0.5 nM.

Which IC50 does the source give for `COc1nc(-c2cccc(-c3cccc(-c4ccc5nc(CNC[C@H](C)O)cn5n4)c3Cl)c2Cl)ccc1CNC[C@@H]1CCC(=O)N1` [Example 354, (5S)-5-[[[6-[2-Chloro-3-[2-chloro-3-[2-[[[(2S)-2-hydroxypropyl]amino]methyl]imidazo[1,2-b]pyridazin-6-yl]phenyl]phenyl]-2-methoxy-3-pyridyl]methylamino]methyl]pyrrolidin-2-one] here?
The IC50 was 0.8 nM.

With `COc1nc(-c2cccc(-c3cccc(-c4cc5ncc(CNC[C@@H]6CCC(=O)N6)cc5cn4)c3Cl)c2Cl)ccc1CNC[C@@H]1CCC(=O)N1` [Example 258, (S)-5-((((6-(2,2′-Dichloro-3′-(3-(((((S)-5-oxopyrrolidin-2-yl)methyl)amino)methyl)-1,6-naphthyridin-7-yl)-[1,1′-biphenyl]-3-yl)-2-methoxypyridin-3-yl)methyl)amino)methyl) pyrrolidin-2-one] as the compound, how does the IC50 read?
Its IC50 is 0.1 nM.

Which IC50 does the source give for `COc1nc(-c2cccc(-c3cccc(-c4ccn5c(=O)c(CNCCCO)cnc5c4)c3Cl)c2Cl)ccc1CNC[C@@H]1CCC(=O)N1` [Example 316, (S)-8-(2,2′-Dichloro-3′-(6-methoxy-5-((((5-oxopyrrolidin-2-yl)methyl)-amino)methyl)-pyridin-2-yl)-[1,1′-biphenyl]-3-yl)-3-(((3-hydroxypropyl)amino)methyl)-4H-pyrido[1,2-a]pyrimidin-4-one] here?
The IC50 was 0.3 nM.

For `COC(=O)N(C)CCN(C)Cc1ccc(-c2cccc(-c3cccc(-c4ccn5c(=O)c(CN(C)CCN(C)C(=O)OC)cnc5c4)c3Cl)c2Cl)nc1OC` [Example 299, methyl (2-(((8-(2,2′-dichloro-3′-(6-methoxy-5-(((2-((methoxycarbonyl)(methyl)amino)ethyl)(methyl)amino)methyl)pyridin-2-yl)-[1,1′-biphenyl]-3-yl)-4-oxo-4H-pyrido[1,2-a]pyrimidin-3-yl)methyl)(methyl)amino)ethyl)(methyl)carbamate], which IC50 is on record?
Its IC50 is 3000 nM.

With `COC(=O)C12CCC(CC1)N(Cc1ccc(-c3cccc(-c4cccc(-c5ccn6c(=O)c(CNC[C@@H]7CCC(=O)N7)cnc6c5)c4Cl)c3Cl)nc1OC)C2` [Example 121, Methyl (S)-2-((6-(2,2′-dichloro-3′-(4-oxo-3-((((5-oxopyrrolidin-2-yl)methyl)amino)methyl)-4H-pyrido[1,2-a]pyrimidin-8-yl)-[1,1′-biphenyl]-3-yl)-2-methoxypyridin-3-yl)methyl)-2-azabicyclo[2.2.2]octane-4-carboxylate] as the compound, how does the IC50 read?
Its IC50 is 1 nM.

Which IC50 does the source give for `COc1nc(-c2cccc(-c3cccc(-c4ccn5c(=O)c(CNC[C@@H]6CCC(=O)N6)cnc5c4)c3Cl)c2Cl)ccc1CN1CC2(C(=O)O)CCC1CC2` [Example 122, (S)-2-((6-(2,2′-Dichloro-3′-(4-oxo-3-((((5-oxopyrrolidin-2-yl)methyl)amino)methyl)-4H-pyrido[1,2-a]pyrimidin-8-yl)-[1,1′-biphenyl]-3-yl)-2-methoxypyridin-3-yl)methyl)-2-azabicyclo[2.2.2]octane-4-carboxylic acid] here?
Its IC50 is 0.8 nM.
